{"source": "ChEMBL document CHEMBL1201862", "about": "“PubChem BioAssay data set” (2004)", "key": {"[1]": {"test": "viability loss in HepG2 liver cells – cell-based, ATP luminescence, cherry-pick, set 6, cytotoxicity control, dose response (AID 1053125)", "type": "functional"}, "[2]": {"test": "cells", "settings": "A549"}, "[3]": {"test": "cells"}, "[4]": {"test": "Trypanosoma cruzi growth suppression in host cells – NIH3T3 host cells, beta-gal luminescence, confirmation (AID 2044);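 note: intracellular parasites grown in NIH/3T3 mouse fibroblasts as host cells; luminescent beta-galactosidase reporter signal from transgenic T. cruzi replicating inside host cells; inhibitors lower the luminescence signal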", "type": "functional, cell-based"}, "[5]": {"test": "NIH3T3 cell viability loss – ATP luminescence, mouse fibroblasts, counter-screen, dose response (AID 2010);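 note: cells exposed to compound for about 90 hours before reading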", "type": "functional, cell-based"}, "[6]": {"target": "Paired box protein Pax-8 (Homo sapiens, UniProt Q06710)", "test": "PAX8 transcriptional activity inhibition in RMG-I – RMG-I cells, luciferase, cherry-pick, dose response (AID 687027);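 note: luciferase reporter driven by Pax8 target thyroperoxidase promoter measured by SteadyGlo luminescence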", "type": "functional, cell-based"}, "[7]": {"test": "inhibitors acting on PAX2 in cells – cell-based, plate reader, dry powder samples, selectivity assay for PAX8 inhibitor project, dose response (AID 743048);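 note: HEK293 cells carrying a WT1 promoter luciferase reporter driven by expressed Pax2; potency is for inhibition of Pax2 driven reporter signal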", "type": "functional"}, "[8]": {"test": "COV362 cell viability loss – plate reader, dry powder, SA12, cytotoxicity control for PAX8 inhibitor project, dose response (AID 743144)", "type": "functional, cell-based"}, "[9]": {"test": "toxicity toward immortalized ovarian surface epithelium – cell-based, plate reader, dry powder samples, cytotoxicity control for PAX8 inhibitor project, dose response (AID 743045)", "type": "functional"}, "[10]": {"test": "A2780 cell killing – plate reader, dry powder samples, cytotoxicity control, dose response (AID 743046)", "type": "functional, cell-based"}, "[11]": {"test": "OVCAR-3 cell viability loss – plate reader, dry powder samples, PAX8 inhibitor project, dose response (AID 743044)", "type": "functional, cell-based"}, "[12]": {"test": "PAX5 cellular inhibition readout – cell-based, plate reader, dry powder samples, selectivity assay for PAX8 inhibitor project, dose response (AID 743047);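 note: HEK293 cells carrying a Pax5 driven CD19 promoter luciferase reporter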", "type": "functional"}, "[13]": {"test": "OVCAR4 cell viability loss – plate reader, dry powder, SA11, cytotoxicity control for PAX8 inhibitor project, dose response (AID 743150)", "type": "functional, cell-based", "settings": "OVCAR-4"}, "[14]": {"test": "COV434 cell viability loss – plate reader, dry powder, SA7, cytotoxicity control for PAX8 inhibitor project, dose response (AID 743145)", "type": "functional, cell-based"}, "[15]": {"test": "OV-90 cell viability loss – plate reader, dry powder, SA8, PAX8 inhibitor project, dose response (AID 743149)", "type": "functional, cell-based"}, "[16]": {"test": "PAX8-dependent cell viability loss – plate reader, dry powder, dose response (AID 743049)", "type": "functional, cell-based"}, "[17]": {"target": "Kallikrein-7 (Homo sapiens, UniProt P49862)", "sequence (P49862 whole entry)": "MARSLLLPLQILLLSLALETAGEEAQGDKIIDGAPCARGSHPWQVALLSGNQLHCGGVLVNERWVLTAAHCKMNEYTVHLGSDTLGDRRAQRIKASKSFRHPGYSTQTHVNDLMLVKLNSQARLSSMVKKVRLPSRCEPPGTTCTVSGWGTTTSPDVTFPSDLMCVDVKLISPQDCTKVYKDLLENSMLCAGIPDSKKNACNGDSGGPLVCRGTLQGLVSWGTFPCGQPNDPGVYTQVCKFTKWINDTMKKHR", "test": "Fluorescence Intensity-based biochemical primary high throughput dose response assay to identify activators of kallikrein-7 (K7) zymogen."}, "[18]": {"target": "Cytochrome P450 3A4 (Homo sapiens, UniProt P08684)"}, "[19]": {"target": "Protein Tat (Human immunodeficiency virus type 1 group M subtype B (isolate HXB2)(HIV-1), UniProt P04608)", "sequence (P04608 whole entry)": "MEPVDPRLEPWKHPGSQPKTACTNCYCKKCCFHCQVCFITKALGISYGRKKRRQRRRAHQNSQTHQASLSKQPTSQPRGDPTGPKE", "type": "functional"}, "[20]": {"test": "HIV-1 Vif–A3G interaction blockers – biochemical, TR-FRET, GST-Vif 1-94, biotin-A3G peptide, dose response retest, primary screen (AID 1117319);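 note: TR-FRET signal of purified GST-Vif binding a biotinylated A3G peptide; inhibitors lower the FRET signal by blocking Vif and A3G binding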", "type": "functional"}, "[21]": {"target": "T1, Neuropeptide Y receptor type 1 (Homo sapiens, UniProt P25929)", "T1 sequence (P25929 whole entry)": "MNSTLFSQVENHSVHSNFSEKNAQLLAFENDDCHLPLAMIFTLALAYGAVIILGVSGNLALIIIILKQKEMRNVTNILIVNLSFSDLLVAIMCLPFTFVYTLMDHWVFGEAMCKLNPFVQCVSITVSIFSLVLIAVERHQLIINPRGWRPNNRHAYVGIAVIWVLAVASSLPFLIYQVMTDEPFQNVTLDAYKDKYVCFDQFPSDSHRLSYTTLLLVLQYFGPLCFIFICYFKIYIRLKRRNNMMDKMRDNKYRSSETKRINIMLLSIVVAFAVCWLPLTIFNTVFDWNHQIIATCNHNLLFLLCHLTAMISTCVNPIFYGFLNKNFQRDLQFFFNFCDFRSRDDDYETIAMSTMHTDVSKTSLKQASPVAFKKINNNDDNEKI", "type": "functional"}, "[22]": {"target": "T2, Neuropeptide Y receptor type 2 (Homo sapiens, UniProt P49146)", "T2 sequence (P49146 whole entry)": "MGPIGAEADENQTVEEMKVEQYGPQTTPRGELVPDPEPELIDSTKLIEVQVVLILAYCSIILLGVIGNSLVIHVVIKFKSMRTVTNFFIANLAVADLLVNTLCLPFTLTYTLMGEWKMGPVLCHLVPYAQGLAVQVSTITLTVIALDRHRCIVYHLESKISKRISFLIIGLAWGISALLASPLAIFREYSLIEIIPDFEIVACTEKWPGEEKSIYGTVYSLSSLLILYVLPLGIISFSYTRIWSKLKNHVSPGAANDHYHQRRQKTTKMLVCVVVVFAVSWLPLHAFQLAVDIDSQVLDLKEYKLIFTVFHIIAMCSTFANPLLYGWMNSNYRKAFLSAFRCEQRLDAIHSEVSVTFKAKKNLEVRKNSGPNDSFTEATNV", "type": "functional, cell-based"}, "[23]": {"target": "T3, Fatty acid synthase (Homo sapiens, UniProt P49327)", "T3 sequence (P49327 whole entry)": "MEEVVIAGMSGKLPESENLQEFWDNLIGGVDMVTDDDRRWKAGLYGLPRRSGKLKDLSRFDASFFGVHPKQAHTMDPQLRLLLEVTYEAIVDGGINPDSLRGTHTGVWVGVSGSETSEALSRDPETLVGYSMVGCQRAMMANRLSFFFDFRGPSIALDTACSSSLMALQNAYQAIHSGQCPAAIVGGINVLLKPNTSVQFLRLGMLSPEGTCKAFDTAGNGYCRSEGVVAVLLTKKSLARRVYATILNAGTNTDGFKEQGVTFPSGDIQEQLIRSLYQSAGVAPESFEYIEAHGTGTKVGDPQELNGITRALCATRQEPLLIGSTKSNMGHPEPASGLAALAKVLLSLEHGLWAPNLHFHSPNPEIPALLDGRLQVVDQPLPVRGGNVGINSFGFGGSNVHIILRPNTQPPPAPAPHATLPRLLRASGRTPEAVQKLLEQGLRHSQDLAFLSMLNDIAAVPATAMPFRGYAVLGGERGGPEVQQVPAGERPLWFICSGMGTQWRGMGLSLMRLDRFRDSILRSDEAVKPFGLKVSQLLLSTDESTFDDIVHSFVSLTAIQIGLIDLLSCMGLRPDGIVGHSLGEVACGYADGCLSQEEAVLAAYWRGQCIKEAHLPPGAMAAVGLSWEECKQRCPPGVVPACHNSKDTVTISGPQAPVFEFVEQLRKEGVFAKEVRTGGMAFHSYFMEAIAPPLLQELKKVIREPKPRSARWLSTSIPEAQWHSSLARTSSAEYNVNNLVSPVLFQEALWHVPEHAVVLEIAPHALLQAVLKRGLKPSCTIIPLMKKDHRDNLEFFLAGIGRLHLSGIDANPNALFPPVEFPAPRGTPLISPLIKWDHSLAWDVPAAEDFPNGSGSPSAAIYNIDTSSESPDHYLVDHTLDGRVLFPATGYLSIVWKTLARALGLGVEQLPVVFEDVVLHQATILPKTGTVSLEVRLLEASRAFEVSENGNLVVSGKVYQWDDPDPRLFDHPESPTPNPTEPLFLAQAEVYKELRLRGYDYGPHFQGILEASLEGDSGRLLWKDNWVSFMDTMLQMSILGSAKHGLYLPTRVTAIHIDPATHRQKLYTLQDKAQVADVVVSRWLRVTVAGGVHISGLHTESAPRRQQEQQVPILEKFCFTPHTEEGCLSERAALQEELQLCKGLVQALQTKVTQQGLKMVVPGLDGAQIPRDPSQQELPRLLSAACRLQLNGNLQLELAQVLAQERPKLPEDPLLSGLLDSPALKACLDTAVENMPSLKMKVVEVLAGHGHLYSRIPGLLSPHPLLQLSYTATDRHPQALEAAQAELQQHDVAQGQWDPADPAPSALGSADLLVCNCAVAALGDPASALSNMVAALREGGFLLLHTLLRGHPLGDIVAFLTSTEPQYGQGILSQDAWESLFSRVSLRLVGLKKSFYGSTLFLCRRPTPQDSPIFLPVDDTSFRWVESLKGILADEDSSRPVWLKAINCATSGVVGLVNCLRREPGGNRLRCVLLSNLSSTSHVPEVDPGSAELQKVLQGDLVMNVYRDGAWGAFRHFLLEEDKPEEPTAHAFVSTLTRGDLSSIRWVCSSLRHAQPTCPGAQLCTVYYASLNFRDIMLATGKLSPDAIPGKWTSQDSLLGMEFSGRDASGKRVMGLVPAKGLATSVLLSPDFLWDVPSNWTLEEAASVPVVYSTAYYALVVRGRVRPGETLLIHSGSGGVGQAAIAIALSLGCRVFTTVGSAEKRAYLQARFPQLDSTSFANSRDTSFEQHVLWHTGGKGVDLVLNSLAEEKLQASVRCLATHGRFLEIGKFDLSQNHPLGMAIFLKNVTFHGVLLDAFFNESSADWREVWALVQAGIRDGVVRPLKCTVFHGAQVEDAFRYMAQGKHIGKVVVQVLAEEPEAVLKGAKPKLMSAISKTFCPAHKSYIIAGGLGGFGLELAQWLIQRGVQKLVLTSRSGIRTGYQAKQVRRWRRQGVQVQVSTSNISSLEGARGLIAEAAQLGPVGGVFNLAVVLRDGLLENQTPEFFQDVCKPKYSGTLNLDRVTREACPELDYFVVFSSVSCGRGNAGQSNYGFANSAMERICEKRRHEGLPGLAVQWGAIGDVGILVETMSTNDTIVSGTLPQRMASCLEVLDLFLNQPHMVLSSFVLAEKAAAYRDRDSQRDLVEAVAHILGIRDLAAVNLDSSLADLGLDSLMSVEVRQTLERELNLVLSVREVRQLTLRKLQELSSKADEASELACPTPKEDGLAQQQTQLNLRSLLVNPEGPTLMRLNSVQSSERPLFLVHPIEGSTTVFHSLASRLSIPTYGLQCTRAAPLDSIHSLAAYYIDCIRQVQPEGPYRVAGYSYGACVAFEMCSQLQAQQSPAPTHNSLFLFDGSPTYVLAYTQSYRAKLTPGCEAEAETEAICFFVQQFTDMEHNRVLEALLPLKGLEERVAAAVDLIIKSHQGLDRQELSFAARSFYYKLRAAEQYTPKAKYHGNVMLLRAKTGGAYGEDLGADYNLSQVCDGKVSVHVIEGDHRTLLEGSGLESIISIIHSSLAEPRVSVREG", "test": "inhibition of human FAS-TE enzyme activity – biochemical, endpoint fluorescence intensity, uHTS hits, dose response (AID 624327);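 note: fluorescence from hydrolysis of an O-methyl fluorescein acyl ester substrate by the enzyme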", "type": "functional"}, "[24]": {"target": "T3, Fatty acid synthase", "test": "inhibition of human FAS-TE enzyme activity – biochemical, kinetic fluorescence intensity, dose response (AID 624326);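 note: rate of fluorescence rise from hydrolysis of a fluorogenic O-methyl fluorescein ester substrate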", "type": "functional"}, "[25]": {"target": "T4, Fibrinogen beta chain (Homo sapiens, UniProt P02675)", "T4 sequence (P02675 whole entry, the tested form may be a part)": "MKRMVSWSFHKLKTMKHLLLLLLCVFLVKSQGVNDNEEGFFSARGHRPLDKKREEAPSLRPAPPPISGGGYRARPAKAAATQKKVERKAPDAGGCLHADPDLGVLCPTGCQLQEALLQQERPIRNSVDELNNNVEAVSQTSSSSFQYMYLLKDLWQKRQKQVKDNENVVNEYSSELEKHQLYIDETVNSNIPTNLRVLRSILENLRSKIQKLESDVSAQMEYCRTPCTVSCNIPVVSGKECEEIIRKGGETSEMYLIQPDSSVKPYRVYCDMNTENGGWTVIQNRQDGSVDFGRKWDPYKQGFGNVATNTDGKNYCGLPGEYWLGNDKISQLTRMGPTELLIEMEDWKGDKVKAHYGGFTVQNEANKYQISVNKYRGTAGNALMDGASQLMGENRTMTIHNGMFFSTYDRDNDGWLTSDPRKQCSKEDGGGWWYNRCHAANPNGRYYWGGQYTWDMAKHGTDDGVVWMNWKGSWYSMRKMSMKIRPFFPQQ", "test": "Fluorescence polarization-based biochemical high throughput dose response assay to identify inhibitors that disrupt the binding of a cyclic peptide (Tn6) to the fibrin proteolytic product D-Dimer and fragment E complex [DD(E )]."}, "[26]": {"target": "T4, Fibrinogen beta chain", "test": "Fluorescence polarization-based biochemical high throughput dose response assay to identify inhibitors that disrupt the binding of a cyclic peptide (Tn7) to the fibrin proteolytic product D-Dimer and fragment E complex [DD(E )]."}, "[27]": {"test": "viability inhibitors of stage V gametocytes – luminescence, dose response (AID 1117278)", "type": "functional, cell-based"}, "[28]": {"test": "viability loss in human Jurkat cells – cell-based, luminescence, cytotoxicity control for P. falciparum gametocyte viability project, dose response (AID 1117277);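 note: potency reflects loss of cellular ATP meaning fewer viable cells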", "type": "functional"}, "[29]": {"test": "NIH-3T3 fibroblast cytotoxicity, dose response, cytotoxicity control, cell-based, fluorescence, Alamar Blue, secondary assay (AID 2327);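 note: NIH-3T3 mouse fibroblasts cultured with fluconazole at 8 µg/mL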", "type": "functional"}, "[30]": {"test": "fluconazole-exposed Candida albicans growth modulators – fluorescence, retest, confirmation (AID 2467)", "type": "functional, cell-based"}, "[31]": {"target": "T5, Serine/threonine-protein phosphatase (Candida dubliniensis (strain CD36 / CBS 7987 / NCPF 3949 / NRRLY-17841) (Yeast), UniProt B9W6M3)", "T5 sequence (B9W6M3 whole entry)": "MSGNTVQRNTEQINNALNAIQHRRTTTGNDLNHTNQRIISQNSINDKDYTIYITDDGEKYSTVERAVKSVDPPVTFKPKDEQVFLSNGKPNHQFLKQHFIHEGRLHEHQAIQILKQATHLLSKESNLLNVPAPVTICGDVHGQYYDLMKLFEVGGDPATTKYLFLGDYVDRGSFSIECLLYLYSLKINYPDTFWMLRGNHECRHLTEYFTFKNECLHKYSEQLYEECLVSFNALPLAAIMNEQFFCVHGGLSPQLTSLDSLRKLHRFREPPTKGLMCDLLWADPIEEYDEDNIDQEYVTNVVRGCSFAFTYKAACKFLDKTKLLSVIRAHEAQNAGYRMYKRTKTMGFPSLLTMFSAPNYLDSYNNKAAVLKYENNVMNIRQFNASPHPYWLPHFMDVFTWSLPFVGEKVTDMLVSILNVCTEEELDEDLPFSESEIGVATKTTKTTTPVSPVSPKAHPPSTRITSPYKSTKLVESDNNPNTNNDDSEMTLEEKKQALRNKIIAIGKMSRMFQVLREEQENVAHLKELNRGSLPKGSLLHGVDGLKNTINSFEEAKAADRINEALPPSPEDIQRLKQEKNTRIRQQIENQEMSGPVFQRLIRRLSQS", "test": "blockers of CaCl2-induced CDRE-lacZ signaling – S. cerevisiae, luminescence, secondary, dose response (AID 2388);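 note: yeast reporter cells carrying a calcineurin-responsive lacZ construct stimulated with calcium chloride; luminescent beta-galactosidase reporter signal in whole cells rather than isolated phosphatase activity; potency for inhibition where a drop in reporter signal means calcineurin blockade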", "type": "functional, cell-based"}, "[32]": {"target": "ATP-dependent molecular chaperone HSP82 (Candida albicans (strain WO-1) (Yeast), UniProt C4YTQ8)", "sequence (C4YTQ8 whole entry)": "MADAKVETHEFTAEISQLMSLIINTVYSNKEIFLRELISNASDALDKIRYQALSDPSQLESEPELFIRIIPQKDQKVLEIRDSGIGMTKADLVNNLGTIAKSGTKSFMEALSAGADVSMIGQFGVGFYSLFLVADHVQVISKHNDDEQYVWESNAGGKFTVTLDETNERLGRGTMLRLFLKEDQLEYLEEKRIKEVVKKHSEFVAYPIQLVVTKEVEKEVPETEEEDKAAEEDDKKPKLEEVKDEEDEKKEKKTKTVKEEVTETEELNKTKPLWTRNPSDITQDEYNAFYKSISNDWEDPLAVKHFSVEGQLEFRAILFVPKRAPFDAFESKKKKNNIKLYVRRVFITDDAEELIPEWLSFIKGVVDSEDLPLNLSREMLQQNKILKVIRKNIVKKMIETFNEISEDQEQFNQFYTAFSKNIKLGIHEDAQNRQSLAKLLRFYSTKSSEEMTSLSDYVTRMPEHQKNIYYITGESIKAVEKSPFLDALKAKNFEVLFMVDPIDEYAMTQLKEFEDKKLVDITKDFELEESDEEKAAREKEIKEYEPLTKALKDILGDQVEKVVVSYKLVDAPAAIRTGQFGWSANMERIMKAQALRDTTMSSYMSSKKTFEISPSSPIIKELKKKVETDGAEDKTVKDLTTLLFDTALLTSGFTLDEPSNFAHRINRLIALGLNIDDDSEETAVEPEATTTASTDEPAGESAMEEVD", "test": "steroid-induced GRE reporter decrease in yeast – S. cerevisiae, luminescence, Hsp90 inhibitor project, dose response (AID 2400);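 note: beta-galactosidase luminescence from glucocorticoid response element reporter as proxy for Hsp90 function; inhibitor potency where signal loss means Hsp90 inhibition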", "type": "functional, cell-based"}, "[33]": {"test": "potency of ADAM10 substrate cleavage blockers – biochemical, QFRET, dose response (AID 743254);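 note: EDANS fluorescence gain as the protease cuts the substrate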"}, "[34]": {"target": "Disintegrin and metalloproteinase domain-containing protein 17 (Homo sapiens, UniProt P78536)", "sequence (P78536 whole entry, the tested form may be a part)": "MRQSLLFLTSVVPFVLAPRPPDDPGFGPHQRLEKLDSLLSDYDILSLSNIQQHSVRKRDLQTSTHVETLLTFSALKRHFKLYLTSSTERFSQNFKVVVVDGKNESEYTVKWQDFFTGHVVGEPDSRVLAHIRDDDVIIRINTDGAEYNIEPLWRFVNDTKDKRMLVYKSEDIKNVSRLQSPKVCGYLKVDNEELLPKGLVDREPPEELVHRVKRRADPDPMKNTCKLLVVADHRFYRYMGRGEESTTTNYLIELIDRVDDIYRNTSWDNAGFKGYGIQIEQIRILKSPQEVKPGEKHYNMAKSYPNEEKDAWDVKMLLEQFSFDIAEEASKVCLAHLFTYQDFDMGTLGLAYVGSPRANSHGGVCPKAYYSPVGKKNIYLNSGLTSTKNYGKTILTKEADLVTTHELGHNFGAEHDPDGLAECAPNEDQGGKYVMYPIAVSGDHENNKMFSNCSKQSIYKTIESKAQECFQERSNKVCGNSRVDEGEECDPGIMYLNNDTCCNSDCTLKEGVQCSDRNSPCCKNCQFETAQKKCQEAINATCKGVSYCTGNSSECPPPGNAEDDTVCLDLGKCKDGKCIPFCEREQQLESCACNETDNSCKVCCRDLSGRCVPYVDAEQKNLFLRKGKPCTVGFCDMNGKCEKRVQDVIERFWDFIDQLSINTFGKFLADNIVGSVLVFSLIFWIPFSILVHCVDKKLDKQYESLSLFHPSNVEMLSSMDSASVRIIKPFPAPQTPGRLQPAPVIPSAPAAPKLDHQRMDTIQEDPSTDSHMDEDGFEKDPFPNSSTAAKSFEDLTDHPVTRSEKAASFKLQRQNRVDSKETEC", "test": "inhibition of ADAM17 substrate cleavage – biochemical, quenched FRET substrate, counter-screen for ADAM10 exosite inhibitor project, dose response (AID 743253)"}, "[35]": {"test": "HepG2 viability loss by ATP level – cell-based, CellTiter-Glo luminescence, cherry-pick, set 4, cytotoxicity control, dose response (AID 743480)", "type": "functional"}, "[36]": {"test": "ATP-based viability loss in HEK293T cells – cell-based, CellTiter-Glo luminescence, cherry-picked samples, set 4, cytotoxicity control, dose response (AID 743441)", "type": "functional", "settings": "HEK293"}}, "note": "Active and inactive are the calls of the source.", "data": [{"compound": "CC1CCCCN1Cc1c(O)ccc2c(=O)c(-c3nc4ccccc4s3)coc12", "note": "(stereo unspecified)", "values": [{"measurement": "AC50", "setting": "[1]", "result": "40.4 µM (active)"}, {"measurement": "AC50", "setting": "[2]", "result": "44.8 µM (active)"}, {"measurement": "AC50", "setting": "[3]", "result": "47 µM (active)"}]}, {"compound": "COc1ccc2c(c1)C(C)=CC(C)(C)N2S(=O)(=O)c1ccc(Br)cc1", "values": [{"measurement": "EC50", "setting": "[4]", "result": "2.06 µM (active)"}, {"measurement": "EC50", "setting": "[5]", "result": "1.05 µM (active)"}, {"measurement": "AC50", "setting": "[6]", "result": "7.63 µM (active)"}, {"measurement": "AC50", "setting": "[7]", "result": "63 µM (active)"}, {"measurement": "AC50", "setting": "[8]", "result": "15.3 µM (active)"}, {"measurement": "AC50", "setting": "[9]", "result": "8.49 µM (active)"}, {"measurement": "AC50", "setting": "[10]", "result": "12 µM (active)"}, {"measurement": "AC50", "setting": "[11]", "result": "8.79 µM (active)"}, {"measurement": "AC50", "setting": "[12]", "result": "75.6 µM (active)"}, {"measurement": "AC50", "setting": "[13]", "result": "5.89 µM (active)"}, {"measurement": "AC50", "setting": "[14]", "result": "4.64 µM (active)"}, {"measurement": "AC50", "setting": "[15]", "result": "5.9 µM (active)"}, {"measurement": "AC50", "setting": "[16]", "result": "16 µM (active)"}]}, {"compound": "CCN(CC)Cc1c(O)ccc2c(=O)c(Oc3ccccc3OC)coc12", "values": [{"measurement": "EC50", "setting": "[17]", "result": "13.1 µM (inactive)"}, {"measurement": "AC50", "setting": "[18]", "result": "25.1 µM (inconclusive)"}]}, {"compound": "CCOC(=O)c1cc(NC(=O)N2CCCc3ccccc32)c(C)nc1C", "values": [{"measurement": "IC50", "setting": "[19]", "result": "> 100 µM (active)"}, {"measurement": "IC50", "setting": "[20]", "result": "> 100 µM (active)"}]}, {"compound": "O=C(Nc1ccc(Cl)cc1)c1csc(-c2ccccc2)n1", "values": [{"measurement": "IC50", "setting": "[21]", "result": "6.94 µM (active)"}, {"measurement": "IC50", "setting": "[22]", "result": "10.1 µM (not active)"}, {"measurement": "IC50", "setting": "[23]", "result": "12.3 µM (active)"}, {"measurement": "IC50", "setting": "[24]", "result": "13.5 µM (active)"}, {"measurement": "IC50", "setting": "[25]", "result": "> 83.3 µM (inactive)"}, {"measurement": "IC50", "setting": "[26]", "result": "> 83.3 µM (inactive)"}]}, {"compound": "COCCNC(=O)c1ccc2c(c1)CCN2S(C)(=O)=O", "values": [{"measurement": "IC50", "setting": "[27]", "result": "> 109 µM (inactive)"}, {"measurement": "IC50", "setting": "[28]", "result": "> 83.3 µM (inactive)"}]}, {"compound": "Cc1cc(C)c(-c2cc(NC(=O)COC(=O)c3ccc(C#N)cc3)n(-c3ccccc3)n2)cc1C", "values": [{"measurement": "EC50", "setting": "[29]", "result": "> 150 µM (inactive)"}, {"measurement": "EC50", "setting": "[30]", "result": "0.092 µM (active)"}, {"measurement": "EC50", "setting": "[31]", "result": "> 180 µM (inactive)"}, {"measurement": "EC50", "setting": "[32]", "result": "> 160 µM (inactive)"}, {"measurement": "IC50", "setting": "[33]", "result": "> 69.5 µM (inactive)"}, {"measurement": "IC50", "setting": "[34]", "result": "> 69.5 µM (inactive)"}]}, {"compound": "CCn1c(S)nnc1-c1cc(-c2ccc(OC(C)C)cc2)nc2ccccc12", "values": [{"measurement": "AC50", "setting": "[35]", "result": "> 52 µM (inactive)"}, {"measurement": "AC50", "setting": "[36]", "result": "> 52 µM (inactive)"}]}]}
